Measurements reported in PubChem BioAssay (NCI).
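Growth conditions: 96-well plates. Treatment: test compound, 48 hours, 5 concentrations. Analysis: linear interpolation between bracketing concentrations; unreached endpoints set to highest concentration. The concentration for 50% growth inhibition is given as GI50. TGI marks complete inhibition of growth.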

Assays:
Test in all cases: NCI anticancer screen, dose series, 48 h
[1] = tested on: 786-0 renal
[2] = tested on: A498 renal
[3] = tested on: A549 NSCLC
[4] = tested on: ACHN renal
[5] = tested on: BT-549 breast
[6] = tested on: CAKI-1 renal
[7] = tested on: CCRF-CEM leukemia
[8] = tested on: DU-145 prostate
[9] = tested on: EKVX NSCLC
[10] = tested on: HCC-2998 colon
[11] = tested on: HCT-15 colon
[12] = tested on: HL-60(TB) leukemia
[13] = tested on: HOP-62 NSCLC
[14] = tested on: HOP-92 NSCLC
[15] = tested on: HS 578T breast
[16] = tested on: HT29 colon
[17] = tested on: IGROV1 ovarian
[18] = tested on: K-562 leukemia
[19] = tested on: KM12 colon
[20] = tested on: LOX IMVI melanoma
[21] = tested on: M14 melanoma
[22] = tested on: MALME-3M melanoma
[23] = tested on: MCF7 breast
[24] = tested on: MDA-MB-231 breast
[25] = tested on: MDA-MB-435
[26] = tested on: MDA-MB-468 breast
[27] = tested on: MOLT-4 leukemia
[28] = tested on: NCI-H226 lung
[29] = tested on: NCI-H23 lung
[30] = tested on: NCI-H522 lung
[31] = tested on: NCI/ADR-RES ovarian
[32] = tested on: OVCAR-3 ovarian
[33] = tested on: OVCAR-4 ovarian
[34] = tested on: OVCAR-5 ovarian
[35] = tested on: OVCAR-8 ovarian
[36] = tested on: PC-3 prostate
[37] = tested on: RPMI-8226 leukemia
[38] = tested on: RXF 393 renal
[39] = tested on: SF-268 CNS
[40] = tested on: SF-295 CNS
[41] = tested on: SF-539 CNS
[42] = tested on: SK-MEL-2 melanoma
[43] = tested on: SK-MEL-28 melanoma
[44] = tested on: SK-MEL-5 melanoma
[45] = tested on: SK-OV-3 ovarian
[46] = tested on: SNB-19 CNS
[47] = tested on: SNB-75 CNS
[48] = tested on: SW-620 colon
[49] = tested on: T-47D breast
[50] = tested on: TK-10 renal
[51] = tested on: UACC-257 melanoma
[52] = tested on: UACC-62 melanoma
[53] = tested on: UO-31 renal

CN1CCCN(Cc2ccc(C(=O)Nc3cccc(Nc4ccc5c(O)cccc5n4)c3)cc2C(F)(F)F)CC1
GI50 [1]: 2.06 µM | TGI [1]: 3.8 µM | GI50 [2]: 15.3 µM | TGI [2]: 29 µM | GI50 [3]: 3.63 µM | TGI [3]: 15.1 µM | GI50 [4]: 1.92 µM | TGI [4]: 3.74 µM | GI50 [5]: 1.8 µM | TGI [5]: 3.28 µM | GI50 [6]: 1.8 µM | TGI [6]: 3.94 µM | GI50 [7]: 2.07 µM | TGI [7]: > 100 µM | GI50 [8]: 3.27 µM | TGI [8]: 10.1 µM | GI50 [9]: 1.82 µM | TGI [9]: 3.5 µM | GI50 [10]: 1.8 µM | TGI [10]: 3.19 µM | GI50 [11]: 1.93 µM | TGI [11]: 4.04 µM | GI50 [12]: 2.35 µM | TGI [12]: 5.52 µM | GI50 [13]: 2.03 µM | TGI [13]: 4.58 µM | GI50 [14]: 1.64 µM | TGI [14]: 4.41 µM | GI50 [15]: 1.93 µM | TGI [15]: 4.85 µM | GI50 [16]: 1.92 µM | TGI [16]: 3.76 µM | GI50 [17]: 2.56 µM | TGI [17]: 6.88 µM | GI50 [18]: 2.18 µM | TGI [18]: > 100 µM | GI50 [19]: 1.98 µM | TGI [19]: 3.99 µM | GI50 [20]: 1.63 µM | TGI [20]: 2.99 µM | GI50 [21]: 1.89 µM | TGI [21]: 4.49 µM | GI50 [22]: 1.7 µM | TGI [22]: 3.14 µM | GI50 [23]: 1.68 µM | TGI [23]: 3.2 µM | GI50 [24]: 1.65 µM | TGI [24]: 3.18 µM | GI50 [25]: 1.78 µM | TGI [25]: 3.6 µM | GI50 [26]: 1.66 µM | TGI [26]: 3.13 µM | GI50 [27]: 2.11 µM | TGI [27]: 6.94 µM | GI50 [28]: 16.7 µM | TGI [28]: 46.8 µM | GI50 [29]: 1.78 µM | TGI [29]: 3.31 µM | GI50 [30]: 1.84 µM | TGI [30]: 3.51 µM | GI50 [31]: 6.43 µM | TGI [31]: 68.5 µM | GI50 [32]: 1.97 µM | TGI [32]: 4.41 µM | GI50 [33]: 3.83 µM | TGI [33]: 15.4 µM | GI50 [34]: 11.4 µM | TGI [34]: 23.9 µM | GI50 [35]: 2.51 µM | TGI [35]: 6.22 µM | GI50 [36]: 1.87 µM | TGI [36]: 5.73 µM | GI50 [37]: 2.89 µM | TGI [37]: 9.36 µM | GI50 [38]: 1.85 µM | TGI [38]: 3.71 µM | GI50 [39]: 2.14 µM | TGI [39]: 5.24 µM | GI50 [40]: 1.67 µM | TGI [40]: 3.07 µM | GI50 [41]: 1.7 µM | TGI [41]: 3.12 µM | GI50 [42]: 1.81 µM | TGI [42]: 3.46 µM | GI50 [43]: 1.82 µM | TGI [43]: 3.27 µM | GI50 [44]: 1.72 µM | TGI [44]: 3.09 µM | GI50 [45]: 11.1 µM | TGI [45]: 27.1 µM | GI50 [46]: 2.03 µM | TGI [46]: 3.91 µM | GI50 [47]: 1.32 µM | TGI [47]: 7.46 µM | GI50 [48]: 1.95 µM | TGI [48]: 3.44 µM | GI50 [49]: 3.46 µM | TGI [49]: 13.3 µM | GI50 [50]: 2.8 µM | TGI [50]: 8.95 µM | GI50 [51]: 1.6 µM | TGI [51]: 3.2 µM | GI50 [52]: 1.69 µM | TGI [52]: 3.13 µM | GI50 [53]: 2.04 µM | TGI [53]: 4.96 µM
